Values after ≈ are worked out from the molar mass of the structure shown. Read-outs that look alike come from different tables or passages of the source. Values belong to the molecule of their own block, whether it stands above or below them.
Experiments:
Assay in all cases: agar dilution MIC assay of anaerobic bacteria
C. difficile = format: cell-based, Clostridium difficile; conditions: Clostridioides difficile, read-out: MIC
Method: (§1) Each compound was assayed against a panel of anaerobic bacteria in culture, consisting of Gram-positive organisms, such as Lactobacilli, Bifidobacteria, Clostridium spp., and Gram-negative bacteria, such as […] fragilis spp., according to guidelines of the Clinical and Laboratory Standards Institute (CLSI document M11-A7, CLSI, Wayne, Pa., 2007). […] One tenth mL of diluted bacteria containing 500-1000 colony-forming units (CFU) was plated and spread, and the plates incubated at 37° C. for 24-48 hours. MIC (minimum inhibitory concentration) is equivalent to the lowest concentration in μg/ml at which growth, i.e., colony formation, is not observed. […] Bacteria were assayed using a reference agar dilution method. Drug dilutions and drug-supplemented agar plates were prepared manually. The test organisms were maintained frozen at −80° C. The isolates were sub-cultured on Supplemented Brucella Agar (SBA) plates in a Bactron II anaerobic chamber and incubated for 48 hours at 35-36° C. in the Bactron II anaerobe chamber. Following inoculation, the drug-supplemented plates were incubated at 35° C. for 48 hours in the anaerobic environment (5% hydrogen, 5% carbon dioxide, 90% nitrogen) of the Bactron II. The MIC in μg/ml was read per Clinical and Laboratory Standards Institute guidelines.

Bi. longum = format: cell-based, Bifidobacterium longum; conditions: Bifidobacterium longum, read-out: MIC
Method: as §1

Bi. brevi = format: cell-based, Bifidobacterium brevi
Method: as §1

L. casei = format: cell-based, Lactobacillus casei; conditions: Lacticaseibacillus casei
Method: as §1

Ba. fragilis = format: cell-based; conditions: Bacteroides fragilis
Method: as §1

L. acidophilus = format: cell-based; conditions: Lactobacillus acidophilus
Method: as §1

E. lentum = format: cell-based, Eubacterium lentum; conditions: Eggerthella lenta, read-out: MIC
Method: as §1

MIC (C. difficile; C. difficile, Micromyx Number 1209, Table 1): 16 µg/mL (≈ 50.4 µM)
MIC (C. difficile; C. difficile, Micromyx Number 3579, Table 1): 16 µg/mL (≈ 50.4 µM)
MIC (C. difficile; C. difficile, Micromyx Number 3580, Table 1): 4 µg/mL (≈ 12.6 µM)
MIC (C. difficile; C. difficile, Micromyx Number 3581, Table 1): 8 µg/mL (≈ 25.2 µM)
MIC (C. difficile; C. difficile, Micromyx Number 3582, Table 1): 16 µg/mL (≈ 50.4 µM)
MIC (C. difficile; C. difficile, Micromyx Number 3584, Table 1): 4 µg/mL (≈ 12.6 µM)
MIC (C. difficile; C. difficile, Micromyx Number 3585, Table 1): 16 µg/mL (≈ 50.4 µM)
MIC (C. difficile; C. difficile, Micromyx Number 3586, Table 1): 4 µg/mL (≈ 12.6 µM)
MIC (C. difficile; C. difficile, Micromyx Number 3587, Table 1): 8 µg/mL (≈ 25.2 µM)
MIC (C. difficile; C. difficile, Micromyx Number 3588, Table 1): 1 µg/mL (≈ 3.15 µM)
MIC (C. difficile; C. difficile, Micromyx Number 3589, Table 1): 16 µg/mL (≈ 50.4 µM)
MIC (C. difficile; C. difficile, Micromyx Number 3590, Table 1): 8 µg/mL (≈ 25.2 µM)
MIC (C. difficile; C. difficile, Micromyx Number 3591, Table 1): 8 µg/mL (≈ 25.2 µM)
MIC (C. difficile; C. difficile, Micromyx Number 3593, Table 1): 16 µg/mL (≈ 50.4 µM)
MIC (C. difficile; C. difficile, Micromyx Number 3594, Table 1): 4 µg/mL (≈ 12.6 µM)
MIC (C. difficile; C. difficile, Micromyx Number 3595, Table 1): 4 µg/mL (≈ 12.6 µM)
MIC (C. difficile; C. difficile, Micromyx Number 4381 (ATCC strain), Table 1): 4 µg/mL (≈ 12.6 µM)
MIC (Bi. longum; Bi. longum, Micromyx Number 3968, Table 1): > 32 µg/mL
MIC (Bi. brevi; Bifidobacterium, Bi. brevi, Micromyx Number 3967, Table 1): > 32 µg/mL
MIC (L. casei; Micromyx Number 1722, Table 1): 32 µg/mL (≈ 101 µM)
MIC (Ba. fragilis; Ba. fragilis, Micromyx Number 0123 (ATCC strain), Gram negative, Table 1): > 32 µg/mL
MIC (L. acidophilus; Micromyx Number 0681, Table 1): 32 µg/mL (≈ 101 µM)
MIC (E. lentum; E. lentum, Micromyx Number 1274, Table 1): > 32 µg/mL
Compound: CCc1cc(Nc2cc(=O)n(CCCCO)c(=O)[nH]2)ccc1C [Compound 179E]

MIC (C. difficile; C. diff., Strain no. 3580, Table 3): 32 µg/mL
MIC (C. difficile; C. diff., Strain no. 3581, Table 3): 8 µg/mL
MIC (C. difficile; C. diff., Strain no. 3582, Table 3): 32 µg/mL
MIC (C. difficile; C. diff., Strain no. 3584, Table 3): 8 µg/mL
MIC (C. difficile; C. diff., Strain no. 3585, Table 3): 16 µg/mL
MIC (C. difficile; C. diff., Strain no. 3586, Table 3): 8 µg/mL
MIC (C. difficile; C. diff., Strain no. 3587, Table 3): 16 µg/mL
MIC (C. difficile; C. diff., Strain no. 3588, Table 3): 2 µg/mL
MIC (C. difficile; C. diff., Strain no. 3589, Table 3): 16 µg/mL
MIC (C. difficile; C. diff., Strain no. 4381 (ATCC strain), Table 3): 8 µg/mL
MIC (Bi. longum; Bi. Longum, Strain no. 3968 (ATCC strain), Table 3): > 32 µg/mL
MIC (Bi. brevi; Bifidobacterium breve, Bi. Breve, Strain no. 3967 (ATCC strain), Table 3): > 32 µg/mL
MIC (L. casei; Strain no. 1722 (ATCC strain), Table 3): > 32 µg/mL
MIC (Ba. fragilis; B. fragilis, Strain no. 0123 (ATCC strain), Gram-negative (control), Table 3): > 32 µg/mL
MIC (L. acidophilus; Strain no. 0681, Table 3): 16 µg/mL
MIC (E. lentum; Eu. Lentum, Strain no. 1274 (ATCC strain), Table 3): > 32 µg/mL
Compound: Cl.O=c1cc(NCc2ccc(Cl)c(Cl)c2)[nH]c(=O)n1CCOCCN1CCOCC1 [Compound 240D]

MIC (C. difficile; C. diff. Strain no. 18285, Table 4): 8 µg/mL (≈ 17.7 µM)
MIC (C. difficile; C. diff. Strain no. 19265, Table 4): 4 µg/mL (≈ 8.86 µM)
MIC (C. difficile; C. diff. Strain no. 19273, Table 4): 8 µg/mL (≈ 17.7 µM)
MIC (C. difficile; C. diff. Strain no. 19281, Table 4): 4 µg/mL (≈ 8.86 µM)
MIC (C. difficile; C. diff. Strain no. 19291, Table 4): 4 µg/mL (≈ 8.86 µM)
MIC (C. difficile; C. diff. Strain no. 19369, Table 4): 16 µg/mL (≈ 35.4 µM)
MIC (C. difficile; C. diff. Strain no. 19382, Table 4): 4 µg/mL (≈ 8.86 µM)
MIC (C. difficile; C. diff. Strain no. 19540, Table 4): 4 µg/mL (≈ 8.86 µM)
MIC (C. difficile; C. diff. Strain no. 19580, Table 4): 2 µg/mL (≈ 4.43 µM)
MIC (C. difficile; C. diff. Strain no. 19680, Table 4): 4 µg/mL (≈ 8.86 µM)
MIC (C. difficile; C. diff. Strain no. 19681, Table 4): 4 µg/mL (≈ 8.86 µM)
MIC (C. difficile; C. diff. Strain no. 19683, Table 4): 8 µg/mL (≈ 17.7 µM)
MIC (C. difficile; C. diff. Strain no. 19687, Table 4): 8 µg/mL (≈ 17.7 µM)
MIC (C. difficile; C. diff. Strain no. 20066, Table 4): 8 µg/mL (≈ 17.7 µM)
MIC (C. difficile; C. diff. Strain no. 20152, Table 4): 16 µg/mL (≈ 35.4 µM)
MIC (C. difficile; C. diff. Strain no. 20307, Table 4): 4 µg/mL (≈ 8.86 µM)
MIC (C. difficile; C. diff. Strain no. 20494, Table 4): 4 µg/mL (≈ 8.86 µM)
MIC (C. difficile; C. diff. Strain no. 20680, Table 4): 4 µg/mL (≈ 8.86 µM)
MIC (C. difficile; C. diff. Strain no. 20934, Table 4): 4 µg/mL (≈ 8.86 µM)
MIC (C. difficile; C. diff. Strain no. 21099, Table 4): 2 µg/mL (≈ 4.43 µM)
Compound: O=c1[nH]c(NCc2ccc(Cl)c(Cl)c2)nc2ncn(CCCCN3CCOCC3)c12 [Compound 258D, 7-[4-(N-morpholinyl)butyl]-2-(3,4-dichlorobenzylamino)-6-oxopurine]

From US8796292B2, “Selective antibacterials for clostridium difficile infections” (GLSynthesis Inc., priority 2009, dated 2014)
